Measured values taken from ChEMBL document CHEMBL1201862, “PubChem BioAssay data set” (2004).
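Where inhibition never reached the appropriate level, the endpoint shown equals the highest concentration tested. Otherwise, values were interpolated linearly from a five-concentration, 48-hour dose response in 96-well plates. GI50: concentration for 50% inhibition of growth.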 The source made the active and inactive calls. No stated cut-off is given here; in the data, active = GI50 up to about 1.1 µM and inactive = higher.

Assays:
Assay in all cases: NCI anticancer screen, dose series, 48 h
NCI/ADR-RES = system: NCI/ADR-RES
HCC 2998 = system: HCC 2998
IGROV-1 = system: IGROV-1
UACC-62 = system: UACC-62
SF-539 = system: SF-539
SR = system: SR
LOX IMVI = system: LOX IMVI
SNB-75 = system: SNB-75
EKVX = system: EKVX
MDA-MB-435 = system: MDA-MB-435
Malme-3M = system: Malme-3M
SN12C = system: SN12C
A549 = system: A549
SF-295 = system: SF-295
M14 = system: M14
NCI-H522 = system: NCI-H522
SF-268 = system: SF-268
OVCAR-3 = system: OVCAR-3
NCI-H23 = system: NCI-H23
HOP-92 = system: HOP-92

| Structure (SMILES) | GI50 (NCI/ADR-RES) | GI50 (HCC 2998) | GI50 (IGROV-1) | GI50 (UACC-62) | GI50 (SF-539) | GI50 (SR) | GI50 (LOX IMVI) | GI50 (SNB-75) | GI50 (EKVX) | GI50 (MDA-MB-435) | GI50 (Malme-3M) | GI50 (SN12C) | GI50 (A549) | GI50 (SF-295) | GI50 (M14) | GI50 (NCI-H522) | GI50 (SF-268) | GI50 (OVCAR-3) | GI50 (NCI-H23) | GI50 (HOP-92) |
| --- | --- | --- | --- | --- | --- | --- | --- | --- | --- | --- | --- | --- | --- | --- | --- | --- | --- | --- | --- | --- |
| O=C(C=P(c1ccccc1)(c1ccccc1)c1ccccc1)c1ccccc1-c1ccccc1C(=O)C=P(c1ccccc1)(c1ccccc1)c1ccccc1 | 0.373 µM (active) | 0.0319 µM (active) | < 0.015 µM (active) | < 0.0163 µM (active) | 0.0328 µM (active) | 0.0143 µM (active) | 0.018 µM (active) | 0.0206 µM (active) | 0.185 µM (active) | 0.0267 µM (active) | < 0.01 µM (active) | 0.0193 µM (active) | 0.0128 µM (active) | 0.0269 µM (active) | 0.0352 µM (active) | 0.014 µM (active) | 0.0351 µM (active) | < 0.01 µM (active) | 0.018 µM (active) | 0.0127 µM (active) |
| Cc1cc(OCC(=O)O)c(Cl)cc1Cl | > 100 µM (inactive) | > 100 µM (inactive) | > 100 µM (inactive) | > 100 µM (inactive) | – | > 100 µM (inactive) | > 100 µM (inactive) | – | > 100 µM (inactive) | > 100 µM (inactive) | > 100 µM (inactive) | > 100 µM (inactive) | > 100 µM (inactive) | > 100 µM (inactive) | > 100 µM (inactive) | > 100 µM (inactive) | > 100 µM (inactive) | > 100 µM (inactive) | > 100 µM (inactive) | > 100 µM (inactive) |
| CCOC(=O)c1c(OCC)[nH]c(=O)c(C(c2ccc(F)cc2)c2c(O)c(C(=O)OCC)c(OCC)[nH]c2=O)c1O | 24.1 µM (inactive) | 18.1 µM (inactive) | 14.9 µM (inactive) | 15.6 µM (inactive) | 10 µM (inactive) | 10.5 µM (inactive) | 16.6 µM (inactive) | – | 7.06 µM (inactive) | 17.6 µM (inactive) | 8.32 µM (inactive) | 14.7 µM (inactive) | 14.8 µM (inactive) | 17.7 µM (inactive) | 24.6 µM (inactive) | 18.6 µM (inactive) | 14.6 µM (inactive) | 15.4 µM (inactive) | 19.5 µM (inactive) | 1.46 µM (inactive) |
| O=C1c2cccc3cc([N+](=O)[O-])cc(c23)C(=O)N1c1ccc(OCCN2CCCC2)cc1 | 32.5 µM (inactive) | 17.1 µM (inactive) | 12.3 µM (inactive) | – | 13.3 µM (inactive) | 2.23 µM (inactive) | 10.8 µM (inactive) | 22 µM (inactive) | 21.6 µM (inactive) | 19.4 µM (inactive) | 15 µM (inactive) | > 100 µM (inactive) | 3.3 µM (inactive) | 20.8 µM (inactive) | 20 µM (inactive) | 10.8 µM (inactive) | 22 µM (inactive) | – | 17.6 µM (inactive) | 24.3 µM (inactive) |
| Cc1ccc(N2CCN(CCC(=O)O)CC2)cc1 | > 100 µM (inactive) | – | > 100 µM (inactive) | > 100 µM (inactive) | > 100 µM (inactive) | 16.9 µM (inactive) | > 100 µM (inactive) | > 100 µM (inactive) | > 100 µM (inactive) | > 100 µM (inactive) | > 100 µM (inactive) | > 100 µM (inactive) | > 100 µM (inactive) | > 100 µM (inactive) | > 100 µM (inactive) | > 100 µM (inactive) | > 100 µM (inactive) | > 100 µM (inactive) | > 100 µM (inactive) | > 100 µM (inactive) |
| CC(=O)c1c2c(cc3c1CC1(C3)Cc3cc4c(c(C(=O)O)c3C1)CCCC4)CCCC2.CC(N)c1ccccc1 (stereo not drawn) | 40.1 µM (inactive) | 34.5 µM (inactive) | 34.8 µM (inactive) | 30.7 µM (inactive) | – | 20.3 µM (inactive) | 35.5 µM (inactive) | 39.7 µM (inactive) | 26.4 µM (inactive) | 54.8 µM (inactive) | 33.4 µM (inactive) | 30.7 µM (inactive) | 30.2 µM (inactive) | 33.7 µM (inactive) | 28.8 µM (inactive) | 46.1 µM (inactive) | 38.7 µM (inactive) | 23.6 µM (inactive) | 42 µM (inactive) | 15.4 µM (inactive) |
| Cc1cc2ccccc2oc(=O)/c1=N\Nc1ccccc1 | 32.3 µM (inactive) | > 100 µM (inactive) | 25.8 µM (inactive) | 19.2 µM (inactive) | 37.8 µM (inactive) | > 100 µM (inactive) | 60.1 µM (inactive) | 20.9 µM (inactive) | 37.2 µM (inactive) | > 100 µM (inactive) | > 100 µM (inactive) | 65.3 µM (inactive) | 74.3 µM (inactive) | 32.6 µM (inactive) | > 100 µM (inactive) | 65.5 µM (inactive) | – | > 100 µM (inactive) | 78.5 µM (inactive) | 73.8 µM (inactive) |
| COc1cc(/C=C/C2=NN(c3cccc(S(=O)(=O)O)c3)C3(C2)SCC(=O)N3c2nc3ccccc3s2)cc(OC)c1OC (stereo not drawn) | 42.7 µM (inactive) | > 100 µM (inactive) | 43.2 µM (inactive) | 35.1 µM (inactive) | 46 µM (inactive) | 23.8 µM (inactive) | 20.4 µM (inactive) | 63.5 µM (inactive) | 68.1 µM (inactive) | 23 µM (inactive) | > 100 µM (inactive) | 33.3 µM (inactive) | 56.1 µM (inactive) | – | 74.8 µM (inactive) | 18 µM (inactive) | 39.4 µM (inactive) | – | 69.3 µM (inactive) | > 100 µM (inactive) |
| CCOC(=O)Nn1cnnc1Cc1ccccc1 | > 100 µM (inactive) | > 100 µM (inactive) | > 100 µM (inactive) | > 100 µM (inactive) | > 100 µM (inactive) | > 100 µM (inactive) | > 100 µM (inactive) | – | > 100 µM (inactive) | > 100 µM (inactive) | > 100 µM (inactive) | > 100 µM (inactive) | > 100 µM (inactive) | > 100 µM (inactive) | > 100 µM (inactive) | > 100 µM (inactive) | > 100 µM (inactive) | > 100 µM (inactive) | > 100 µM (inactive) | > 100 µM (inactive) |
| C=C(C)CCC1C=[N+]([O-])OC(C)(C)C1(C)C (stereo not drawn) | > 100 µM (inactive) | > 100 µM (inactive) | > 100 µM (inactive) | 79.1 µM (inactive) | > 100 µM (inactive) | > 100 µM (inactive) | 80 µM (inactive) | > 100 µM (inactive) | > 100 µM (inactive) | > 100 µM (inactive) | – | > 100 µM (inactive) | 49.3 µM (inactive) | > 100 µM (inactive) | > 100 µM (inactive) | > 100 µM (inactive) | > 100 µM (inactive) | > 100 µM (inactive) | – | > 100 µM (inactive) |
| Cc1ccc(CNc2ccc(Br)cc2)cc1 | 29.4 µM (inactive) | 20.6 µM (inactive) | – | 4.41 µM (inactive) | 36.8 µM (inactive) | 18.8 µM (inactive) | 2.01 µM (inactive) | 37.3 µM (inactive) | 25.6 µM (inactive) | 22.8 µM (inactive) | 21.5 µM (inactive) | 20.9 µM (inactive) | 23.8 µM (inactive) | 47.8 µM (inactive) | 59.6 µM (inactive) | 17.7 µM (inactive) | 31.9 µM (inactive) | 34.8 µM (inactive) | 50.2 µM (inactive) | 15 µM (inactive) |
| Cn1c2ccccc2c(=S)c2cc(NC(=O)CCCCC(=O)Nc3ccc4c(c3)c(=S)c3ccccc3n4C)ccc21 | > 100 µM (inactive) | > 100 µM (inactive) | > 100 µM (inactive) | > 100 µM (inactive) | > 100 µM (inactive) | > 100 µM (inactive) | > 100 µM (inactive) | 54 µM (inactive) | > 100 µM (inactive) | > 100 µM (inactive) | – | > 100 µM (inactive) | > 100 µM (inactive) | > 100 µM (inactive) | > 100 µM (inactive) | > 100 µM (inactive) | > 100 µM (inactive) | > 100 µM (inactive) | > 100 µM (inactive) | > 100 µM (inactive) |
| Nc1csc(-c2scc3c2OCCO3)c1N | 22.6 µM (inactive) | 22.4 µM (inactive) | 22.5 µM (inactive) | 14.4 µM (inactive) | 24.9 µM (inactive) | 28.6 µM (inactive) | 16 µM (inactive) | – | 18.2 µM (inactive) | 15.5 µM (inactive) | 16 µM (inactive) | 17.3 µM (inactive) | 21.4 µM (inactive) | 17.7 µM (inactive) | 17.8 µM (inactive) | 16.3 µM (inactive) | 18.8 µM (inactive) | 14.8 µM (inactive) | 15.5 µM (inactive) | 19.4 µM (inactive) |
| c1ccc(CN2C3C4N(Cc5ccccc5)C2C2N(Cc5ccccc5)C(C(N2Cc2ccccc2)N4Cc2ccccc2)N3Cc2ccccc2)cc1 | > 100 µM (inactive) | > 100 µM (inactive) | > 100 µM (inactive) | > 100 µM (inactive) | > 100 µM (inactive) | > 100 µM (inactive) | > 100 µM (inactive) | > 100 µM (inactive) | > 100 µM (inactive) | > 100 µM (inactive) | – | > 100 µM (inactive) | > 100 µM (inactive) | > 100 µM (inactive) | > 100 µM (inactive) | > 100 µM (inactive) | > 100 µM (inactive) | > 100 µM (inactive) | > 100 µM (inactive) | > 100 µM (inactive) |
